# Patent US11767504B2, “Albumin compositions and methods of producing and using same” (Albcura Corporation, priority 2020, dated 2023)
# Test system: Insulin
# Experiment: Assay of insulin aggregation stabilization by various albumin (absorbance at 360 nm)
# Type: biochemical
# Details: 1−(A360 with albumin)/(A360 of (−) group), at time point where control A360 near 0.35; albumin samples 2 mg/mL mixed 1:1 with 0.7 mg/mL insulin working solution, 37° C.
# Protocol: Various albumin samples were diluted to 2 mg/mL in purified water. An assay working solution was prepared containing 60 mM of HEPES (pH=7.4), 300 mM of NaCl, 30 mM of 2-mercaptoethanol, and 0.7 mg/mL of Insulin. In a 96-well plate, 100 μL of the assay working solution was mixed with 100 μL of each albumin sample. The plate was incubated at 37° C. inside a plate reader, and the absorbance at 360 nm was measured every 30 seconds for 60 minutes.
# The absorbance data at 360 nm (A360) of each group was picked at the time point where the A360 of the control group (without albumin, labeled as (−)) was near 0.35. […] Stabilizing Efficiency %=1−(A360 of experimental group with albumin)/(A360 of (−) group)
substance,measurement,value
fatty acid free BSA: Fatty acid-free BSA from Sigma Aldrich (A8806),Stabilizing Efficiency,53%
